# System: PDC 899932-113-R3-J6 complex spheroid viability
# Assay: Anticancer human tumor 899932-113-R3-J6-PDC patient-derived melanoma cell line growth inhibition [RAS]
# Details: for IC50: curve of first compound; for viability, T/C: stronger effect = lower value
# Method in brief: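 Tumour cells grown as complex spheroids with HUVEC endothelial cells and mesenchymal stem cells, treated with RAS pathway inhibitor combinations. Each agent spans half-log steps from near clinical Cmax, or 10 microM where Cmax is unknown.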
# [1] = second compound 0.00316 µM, first compound 0.0316 µM
# [2] = second compound 0.00316 µM, first compound 0.1 µM
# [3] = second compound 0.00316 µM, first compound 0.316 µM
# [4] = second compound 0.00316 µM, first compound 1 µM
# [5] = second compound 0.00316 µM, first compound 3.16 µM
# [6] = second compound 0.00316 µM, first compound 10 µM
# [7] = second compound 0.01 µM, first compound 0.0316 µM
# [8] = second compound 0.01 µM, first compound 0.1 µM
# [9] = second compound 0.01 µM, first compound 0.316 µM
# [10] = second compound 0.01 µM, first compound 1 µM
# [11] = second compound 0.01 µM, first compound 3.16 µM
# [12] = second compound 0.01 µM, first compound 10 µM
# [13] = second compound 0.0316 µM, first compound 0.0316 µM
# [14] = second compound 0.0316 µM, first compound 0.1 µM
# [15] = second compound 0.0316 µM, first compound 0.316 µM
# [16] = second compound 0.0316 µM, first compound 1 µM
# [17] = second compound 0.0316 µM, first compound 3.16 µM
# [18] = second compound 0.0316 µM, first compound 10 µM
# [19] = second compound 0.1 µM, first compound 0.0316 µM
# [20] = second compound 0.1 µM, first compound 0.1 µM
# [21] = second compound 0.1 µM, first compound 0.316 µM
# [22] = second compound 0.1 µM, first compound 1 µM
# [23] = second compound 0.1 µM, first compound 3.16 µM
# [24] = second compound 0.1 µM, first compound 10 µM
# [25] = second compound 0.316 µM, first compound 0.0316 µM
# [26] = second compound 0.316 µM, first compound 0.1 µM
# [27] = second compound 0.316 µM, first compound 0.316 µM
# [28] = second compound 0.316 µM, first compound 1 µM
# [29] = second compound 0.316 µM, first compound 3.16 µM
# [30] = second compound 0.316 µM, first compound 10 µM
# [31] = second compound 1 µM, first compound 0.0316 µM
# [32] = second compound 1 µM, first compound 0.1 µM
# [33] = second compound 1 µM, first compound 0.316 µM
# [34] = second compound 1 µM, first compound 1 µM
# [35] = second compound 1 µM, first compound 3.16 µM
# [36] = second compound 1 µM, first compound 10 µM
# 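Wherever viability, T/C is given: spheroids exposed to agents for seven days before readout; 100% = DMSO vehicle control wells.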
compound,measurement,setting,value
CC(C)NCC(C(=O)N1CCN(c2ncnc3c2C(C)CC3O)CC1)c1ccc(Cl)cc1 (stereo unspecified) + C=CC(=O)N1CCN(c2nc(OCC3CCCN3C)nc3c(F)c(-c4nc(N)cc(C)c4C(F)(F)F)c(Cl)cc23)C(C)C1,IC50,second compound 0.00316 µM,4890 nM
same,IC50,second compound 0.01 µM,5200 nM
same,IC50,second compound 0.0316 µM,5300 nM
same,IC50,second compound 0.1 µM,5830 nM
same,IC50,second compound 0.316 µM,5980 nM
same,IC50,second compound 1 µM,6010 nM
same,"viability, T/C",[1],106%
same,"viability, T/C",[2],97.3%
same,"viability, T/C",[3],99.6%
same,"viability, T/C",[4],84.4%
same,"viability, T/C",[5],60.3%
same,"viability, T/C",[6],33%
same,"viability, T/C",[7],110%
same,"viability, T/C",[8],105%
same,"viability, T/C",[9],102%
same,"viability, T/C",[10],81.3%
same,"viability, T/C",[11],60.9%
same,"viability, T/C",[12],36.8%
same,"viability, T/C",[13],110%
same,"viability, T/C",[14],101%
same,"viability, T/C",[15],104%
same,"viability, T/C",[16],82.7%
same,"viability, T/C",[17],65.1%
same,"viability, T/C",[18],32.6%
same,"viability, T/C",[19],103%
same,"viability, T/C",[20],110%
same,"viability, T/C",[21],99%
same,"viability, T/C",[22],89%
same,"viability, T/C",[23],58.9%
same,"viability, T/C",[24],41.9%
same,"viability, T/C",[25],106%
same,"viability, T/C",[26],105%
same,"viability, T/C",[27],96.3%
same,"viability, T/C",[28],83.7%
same,"viability, T/C",[29],72.8%
same,"viability, T/C",[30],33.6%
same,"viability, T/C",[31],88.7%
same,"viability, T/C",[32],104%
same,"viability, T/C",[33],105%
same,"viability, T/C",[34],89.5%
same,"viability, T/C",[35],73.7%
same,"viability, T/C",[36],31.7%
CC(C)n1nc(-c2ccc3oc(N)nc3c2)c2c(N)ncnc21 + C=CC(=O)N1CCN(c2nc(OCC3CCCN3C)nc3c(F)c(-c4nc(N)cc(C)c4C(F)(F)F)c(Cl)cc23)C(C)C1,IC50,second compound 0.00316 µM,90.7 nM
same,IC50,second compound 0.01 µM,> 100 nM
same,IC50,second compound 0.0316 µM,> 100 nM
same,IC50,second compound 0.1 µM,> 100 nM
same,IC50,second compound 0.316 µM,> 100 nM
same,IC50,second compound 1 µM,> 100 nM
same,"viability, T/C","second compound 0.00316 µM, first compound 0.000316 µM",109%
same,"viability, T/C","second compound 0.00316 µM, first compound 0.001 µM",105%
same,"viability, T/C","second compound 0.00316 µM, first compound 0.00316 µM",114%
same,"viability, T/C","second compound 0.00316 µM, first compound 0.01 µM",105%
same,"viability, T/C",[1],79.6%
same,"viability, T/C",[2],47.3%
same,"viability, T/C","second compound 0.01 µM, first compound 0.000316 µM",113%
same,"viability, T/C","second compound 0.01 µM, first compound 0.001 µM",116%
same,"viability, T/C","second compound 0.01 µM, first compound 0.00316 µM",112%
same,"viability, T/C","second compound 0.01 µM, first compound 0.01 µM",115%
same,"viability, T/C",[7],74.5%
same,"viability, T/C",[8],52.6%
same,"viability, T/C","second compound 0.0316 µM, first compound 0.000316 µM",113%
same,"viability, T/C","second compound 0.0316 µM, first compound 0.001 µM",111%
same,"viability, T/C","second compound 0.0316 µM, first compound 0.00316 µM",102%
same,"viability, T/C","second compound 0.0316 µM, first compound 0.01 µM",97.7%
same,"viability, T/C",[13],75.7%
same,"viability, T/C",[14],54.1%
same,"viability, T/C","second compound 0.1 µM, first compound 0.000316 µM",110%
same,"viability, T/C","second compound 0.1 µM, first compound 0.001 µM",121%
same,"viability, T/C","second compound 0.1 µM, first compound 0.00316 µM",106%
same,"viability, T/C","second compound 0.1 µM, first compound 0.01 µM",92.2%
same,"viability, T/C",[19],83.5%
same,"viability, T/C",[20],52.3%
same,"viability, T/C","second compound 0.316 µM, first compound 0.000316 µM",98.9%
same,"viability, T/C","second compound 0.316 µM, first compound 0.001 µM",104%
same,"viability, T/C","second compound 0.316 µM, first compound 0.00316 µM",111%
same,"viability, T/C","second compound 0.316 µM, first compound 0.01 µM",104%
same,"viability, T/C",[25],85.5%
same,"viability, T/C",[26],50%
same,"viability, T/C","second compound 1 µM, first compound 0.000316 µM",108%
same,"viability, T/C","second compound 1 µM, first compound 0.001 µM",108%
same,"viability, T/C","second compound 1 µM, first compound 0.00316 µM",109%
same,"viability, T/C","second compound 1 µM, first compound 0.01 µM",100%
same,"viability, T/C",[31],78.9%
same,"viability, T/C",[32],54.8%
CC(Nc1ccc2c(c1)OCCn1cc(N3C(=O)OCC3C(F)F)nc1-2)C(N)=O (stereo unspecified) + C=CC(=O)N1CCN(c2nc(OCC3CCCN3C)nc3c(F)c(-c4nc(N)cc(C)c4C(F)(F)F)c(Cl)cc23)C(C)C1,IC50,second compound 0.00316 µM,1670 nM
same,IC50,second compound 0.01 µM,2010 nM
same,IC50,second compound 0.0316 µM,2910 nM
same,IC50,second compound 0.1 µM,2330 nM
same,IC50,second compound 0.316 µM,1640 nM
same,IC50,second compound 1 µM,1510 nM
same,"viability, T/C",[1],97%
same,"viability, T/C",[2],72.4%
same,"viability, T/C",[3],69.6%
same,"viability, T/C",[4],55.6%
same,"viability, T/C",[5],43%
same,"viability, T/C",[6],36.7%
same,"viability, T/C",[7],81.4%
same,"viability, T/C",[8],75.8%
same,"viability, T/C",[9],65.6%
same,"viability, T/C",[10],55.8%
same,"viability, T/C",[11],47.5%
same,"viability, T/C",[12],32.8%
same,"viability, T/C",[13],90.3%
same,"viability, T/C",[14],75.8%
same,"viability, T/C",[15],70.1%
same,"viability, T/C",[16],59.9%
same,"viability, T/C",[17],49.7%
same,"viability, T/C",[18],38.9%
same,"viability, T/C",[19],88.2%
same,"viability, T/C",[20],77.2%
same,"viability, T/C",[21],69.1%
same,"viability, T/C",[22],55.6%
same,"viability, T/C",[23],48.3%
same,"viability, T/C",[24],38.6%
same,"viability, T/C",[25],82.3%
same,"viability, T/C",[26],75.9%
same,"viability, T/C",[27],68.5%
same,"viability, T/C",[28],51.9%
same,"viability, T/C",[29],46.5%
same,"viability, T/C",[30],38.6%
same,"viability, T/C",[31],95.5%
same,"viability, T/C",[32],81.2%
same,"viability, T/C",[33],61.4%
same,"viability, T/C",[34],53.2%
same,"viability, T/C",[35],48.7%
same,"viability, T/C",[36],32%
